Data as given in patent US6251950A, “Aliphatic propargylamines as cellular rescue agents” (University of Saskatchewan, priority 1998, dated 2001).
Where a name gives a salt, the structure may show the parent alone. Read-outs that look alike come from different tables or passages of the source.

What was measured:
[1] = system: pyramidal neurons in the hippocampus (CA1 neurons); test: Hypoxia/ischaemia model, CA1 neuron survival; type: in vivo, rat; conditions: for mean survival of CA1 neurons, percentage of vehicle treated controls (Table 2): **P < 0.01; for response vs control in vivo at 0.1 µmol/kg: Rattus norvegicus, Neuron, sc, read-out: Percentage survival of CA1 neurones, of vehicle treated controls (Table 4)
Source text: This model produces selective, unilateral lesioning of the pyramidal neurons in the hippocampus which involves neuronal apoptosis.
Values are the mean survival of CA1 neurons expressed as a percentage of
vehicle treated controls (vehicle = 100%) ± sem (n = 6 - 10).

[2] = biological target: T1, rat liver mitochondrial monoamine oxidase B (Rattus norvegicus, UniProt P19643); test: biochemical; type: biochemical; conditions: for MAO-B inhibitory activity / Comparison to most effective MAO-B inhibitor in group: in vitro; for Comparison to most effective MAO-B inhibitor in group: relative to most effective inhibitor in group; for IC50: substrate PE (β-phenylethylamine) 1.9 × 10^-5 M, average of at least 2 independent triplicate experiments
T1 sequence (P19643 1-520): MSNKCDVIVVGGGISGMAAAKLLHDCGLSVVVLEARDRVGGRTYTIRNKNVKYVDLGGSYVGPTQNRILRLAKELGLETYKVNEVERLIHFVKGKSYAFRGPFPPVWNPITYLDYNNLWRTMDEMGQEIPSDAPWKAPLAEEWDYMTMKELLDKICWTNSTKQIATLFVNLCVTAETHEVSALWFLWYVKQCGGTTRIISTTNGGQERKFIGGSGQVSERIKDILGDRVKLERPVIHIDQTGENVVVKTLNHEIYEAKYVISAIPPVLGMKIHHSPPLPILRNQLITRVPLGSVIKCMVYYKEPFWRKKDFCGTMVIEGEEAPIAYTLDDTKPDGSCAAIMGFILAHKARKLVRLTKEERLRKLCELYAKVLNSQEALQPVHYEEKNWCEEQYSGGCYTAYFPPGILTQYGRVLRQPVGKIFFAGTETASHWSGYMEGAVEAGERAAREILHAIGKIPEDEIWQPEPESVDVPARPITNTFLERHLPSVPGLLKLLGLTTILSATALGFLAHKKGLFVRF
Experimental: Enzyme activity was assessed using a radiometric method as previously described (Yu et al, 1992).

[3] = 0.1 μmol/kg, s.c., vehicle = 100%, ± sem (n = 6-10)
[4] = 0.1 μmol/kg, s.c., vehicle = 100%, ± sem (n = 6-10), *P < 0.05, **P < 0.01

`CCCCC[C@@H](C)NC` [Example R-2HMA, (R)-N-(2-heptyl)-methylamine] was tested, and the “mean survival of CA1 neurons, percentage of vehicle treated controls (Table 2)” value [1, 3] was 85 ± 26% and the “activity in the hypoxia/ischaemia model” value ([1]; s.c.) was “neither increase nor decrease the CA1 neuronal death”.

`C#CCN(C)[C@H](C)CC` [Example R-2BuMP, (R)-N-(2-butyl)-N-methylpropargylamine] gave a response vs control in vivo at 0.1 µmol/kg [1] of 297 ± 52%.

`C#CCNCCC.Cl` [Example 1PrPA, N-1-Propylpropargylamine hydrochloride] was tested, and the response vs control in vivo at 0.1 µmol/kg [1, 4] was 174 ± 29% and the “activity in the hypoxia/ischaemia model” value ([1]; s.c.) was “active”.

`C#CCNCC` [EPA, N-ethylpropargylamine] was tested, and the response vs control in vivo at 0.1 µmol/kg [1, 4] was 164 ± 18%.

For `C#CCNC(C)CCCCC` (stereo not shown) [Example 2HPA, N-(2-heptyl)-propargylamine], the “MAO-B inhibitory activity” value [2] was “substantially reduced in comparison to those of the N-methyl compounds”.

For `C#CCN(C)[C@H](C)CCCC` [Example R-2HxMP, N-(2-hexyl)-N-methyl-propargylamine], the “Comparison to most effective MAO-B inhibitor in group” value [2] was 100% and the IC50 [2] was 0.03 µM.

In the case of `C#CCN(C)C(C)C` [Example 2PrMP, N-(2-propyl)-N-methylpropargylamine], the response vs control in vivo at 0.1 µmol/kg [1, 4] is reported as 255 ± 43% and the “activity in the hypoxia/ischaemia model” value ([1]; s.c.) is reported as “slightly lower than those of the optimum branched chain compounds”.

With `C#CCNC(C)CCCC` (stereo not shown) [Example 2HxPA, N-(2-hexyl)-propargylamines] the “MAO-B inhibitory activity” value [2] was “substantially reduced in comparison to those of the N-methyl compounds”.

`C#CCN(C)[C@@H](C)CC` [Example S-2BuMP, (S)-N-(2-butyl)-N-methylpropargylamine] showed a response vs control in vivo at 0.1 µmol/kg [1] of 139 ± 38%.

`C#CCN(C)CCC` [Example 1PrMP, N-(1-propyl)-N-methylpropargylamine] was tested, and the response vs control in vivo at 0.1 µmol/kg [1, 4] was 127 ± 31% and the “activity in the hypoxia/ischaemia model” value ([1]; s.c.) was “inactive”.

With `C#CCNC(C)C.Cl` [Example 2PrPA, N-2-Propylpropargylamine hydrochloride] the response vs control in vivo at 0.1 µmol/kg [1, 4] was 175 ± 20% and the “activity in the hypoxia/ischaemia model” value ([1]; s.c.) was “slightly lower than those of the optimum branched chain compounds”.

In the case of `C#CCN(C)CC` [EMP, N-ethyl-N-methylpropargylamine], the response vs control in vivo at 0.1 µmol/kg [1, 4] is reported as 82 ± 19%.

For `C#CCN[C@@H](C)CC` [Example S-2BuPA, (S)-N-(2-butyl)-propargylamine], the “Comparison to most effective MAO-B inhibitor in group” value [2] was 0.2% and the IC50 [2] was 500 µM.

For `C#CCNC` [MPA, N-methylpropargylamine], the response vs control in vivo at 0.1 µmol/kg [1] was 78 ± 31%.

In the case of `C#CCNC(C)CC` (stereo not shown) [Example 2BuPA, N-(2-butyl)-propargylamine], the “MAO-B inhibitory activity” value [2] is reported as “substantially reduced in comparison to those of the N-methyl compounds”.

For `C#CCN[C@H](C)CC.Cl` [Example R-2BuPA, (R)-N-2-Butylpropargylamine hydrochloride], the “Comparison to most effective MAO-B inhibitor in group” value [2] was 1.4%, the IC50 [2] was 70 µM and the response vs control in vivo at 0.1 µmol/kg [1, 4] was 263 ± 37%.

`C#CCN(C)CCCCCC` [Example 1HxMP, N-(1-hexyl)-N-methylpropargylamine] gave a response vs control in vivo at 0.1 µmol/kg [1, 4] of 215 ± 24%.

For `C#CCN[C@H](C)CCCC.Cl` [Example R-2HxPA, (R)-N-2-Hexylpropargylamine hydrochloride], the “Comparison to most effective MAO-B inhibitor in group” value [2] was 0.8% and the IC50 [2] was 4 µM.

In the case of `CCCCC[C@@H](C)N` [Example R-2HA, (R)-(2-heptyl)amine], the “mean survival of CA1 neurons, percentage of vehicle treated controls (Table 2)” value [1, 3] is reported as 90 ± 30% and the “activity in the hypoxia/ischaemia model” value ([1]; s.c.) is reported as “neither increase nor decrease the CA1 neuronal death”.

For `C#CCN(C)[C@@H](C)CCCC` [Example S-2HxMP, N-(2-hexyl)-N-methyl-propargylamine], the “Comparison to most effective MAO-B inhibitor in group” value [2] was 4.3% and the IC50 [2] was 0.7 µM.

With `C#CCN(C)C` [DMP, N,N-dimethylpropargylamine] the response vs control in vivo at 0.1 µmol/kg [1] was 117 ± 28%.

Molecule `C#CCNCCCCCC` [Example 1HxPA, N-1-Hexylpropargylamine hydrochloride] has a response vs control in vivo at 0.1 µmol/kg [1, 4] of 179 ± 23%.
